The results in this text go back to patent US11820759B2, “Modulators of chemokine receptors” (CHEMOCENTRYX, INC., priority 2015, dated 2023).

For the test, the system named is IL-23 induced ear swelling. Put plainly: IL-23 induced ear swelling model for psoriasis. In kind it is in vivo. Conditions: C57B1/6 mice; sub-cutaneous, therapeutic dosing after 3 intradermal injections of IL-23; calipers; FIG. 2. The protocol:
An intradermal injection of IL-23 into the ear of mice can cause a swelling of the ear which is CCR6 dependent (Hedrick M. N et. al. J. Clinical Investigation. 2009. 119:2317-2329). C57B1/6 mice were given intradermal injections of IL-23 in the right ear. PBS was given by intradermal injection into the left ear as a control. Compound 1.023 (synthesized in example 6) was dosed by sub-cutaneous route. The compound was dosed in a therapeutic manner, after 3 intradermal injections of IL-23 and upon initiation of moderate ear swelling. The degree of swelling was measured using calipers.

As to `COc1ccc(C(=O)O)c(N2Cc3c(Cl)ccc(Nc4c(N[C@@H](c5cc(C)c(C)o5)C(C)(C)C)c(=O)c4=O)c3C2=O)c1` [Compound 1.023, 2-[4-chloro-7-[[2-[[(1R)-1-(4,5-dimethyl-2-furyl)-2,2-dimethyl-propyl]amino]-3,4-dioxo-cyclobuten-1-yl]amino]-1-oxo-isoindolin-2-yl]-4-methoxy-benzoic acid], the “IL-23 induced ear swelling” value is “completely inhibit IL-23 induced ear swelling”.
